Read-outs that look alike come from different tables or passages of the source.
What was measured:
[1] = Cytotoxicity assay (MTT, 48 h); type: cell-based; details: African green monkey, Vero cells
Experimental: Vero cells were cultivated with different concentrations of each compound (12.5–100.0 μM) or Bnz (3.0–3000 μM). After 48 h of incubation, cells were washed and viability was measured by the MTT assay as previously described. The selectivity index (SI) was calculated as the 50% cytotoxic concentration (CC50) obtained with Vero cells divided by the 50% inhibitory concentration (IC50) obtained with T. cruzi.

[2] = system: bloodstream trypomastigotes; experiment: Trypanocidal effect on bloodstream trypomastigotes (24 h, mouse blood); type: cell-based; details: Trypanosoma cruzi, % lysed parasites
Experimental: (§1) Trypanosoma cruzi epimastigotes (Tulahuen strain) were grown as previously described. Bloodstream trypomastigotes were obtained from infected CF1 mice by cardiac puncture. Tulahuen strain expressing the β-galactosidase gene was kindly provided by Dr Buckner (University of Washington, USA).
The trypanocidal effects of C1, C2, C3, D and Bnz were also tested on bloodstream trypomastigotes according to a standard WHO protocol slightly modified. Briefly, mouse blood containing trypomastigotes was treated with different concentrations of each compound (0.30 to 350 μM) or Bnz (0.38 to 38 μM). Plates were incubated for 24 h, and surviving parasites were counted in a Neubauer chamber as previously described. Results were expressed as the percentage of lysed parasites (%L) relative to the number of parasites in the control: %L = [1 − (CDt/(CDc)] × 100, where CDt and CDc represent the cellular density of treated and untreated parasites, respectively.
(§2) The results presented are representative of three to four separate experiments, performed in duplicates or triplicates. All data are expressed as means ± standard errors of the mean (SEM). To calculate the IC50 values, the %I or %L values were plotted against the log of drug concentration (μM) and fitted with a straight line determined by a linear regression (Sigma Plot 10 software). The significance of differences was evaluated using Student' t test, taking a P < 0.05 as significant. Flow cytometry data were analyzed employing the WinMDI 2.9 software.

[3] = system: Trypanosoma cruzi epimastigotes (Tulahuen strain); experiment: Growth inhibition of epimastigotes (cell counting, 4 days); type: cell-based; details: 96 h, read-out: Epimastigotes IC50
Experimental: as §1
(§3) Cells growth was assessed by counting the number of cells per mL of culture using a Neubauer chamber and was expressed as cellular density (CD). The percentage of inhibition (%I) was calculated as %I = {1 − [(CD4t − CD0)/(CD4c − CD0)]} × 100, where the different CDs represent the cellular density of CD4t, treated parasites on day 4; CD0, parasites on day 0; and CD4c, untreated parasites (control) on day 4.
as §2

[4] = system: Epimastigotes of T. cruzi; experiment: Intracellular oxidative activity (H2DCFDA flow cytometry); type: cell-based, Trypanosoma cruzi; details: 7.5, 15 and 22.5 μM; 5, 12 and 24 h; data not shown
Experimental: (§4) Epimastigotes of T. cruzi from a 4 days culture were incubated with C1 (7.5–22.5 μM) during 5–36 hours. Cells were harvested, washed and then the following biochemical assays were carried out.
(a) Assay of Intracellular Oxidative Activity. The intracellular oxidative activity was assessed by flow cytometry using the oxidant-sensitive fluorescent probe H2DCFDA. As a positive control cells were treated with 0.1 mM H2O2. Stained cells were then analyzed by a FACSCalibur flow cytometer (Becton Dickinson) with an excitation wavelength of 480 nm and an emission wavelength of 530 nm. Flow cytometry results were expressed by the ratio Gmt/Gmc, where Gmt and Gmc correspond to the geometric mean of histograms obtained for treated and untreated cells, respectively.

[5] = system: Epimastigotes of T. cruzi; experiment: Parasite death by Annexin V-FITC/PI staining (flow cytometry); type: cell-based, Trypanosoma cruzi; details: for early apoptotic cells / late apoptotic cells: 22.5 μM; for early apoptotic cells: 0.8% at 0 h; for late apoptotic cells: 2.8% at 0 h; for viability at 22.5 µM: Trypanosoma cruzi, 95.9% for control (0 h), read-out: viable nonapoptotic cells
Experimental: as §4
Cell viability and phosphatidylserine (PS) exposure on the parasite surface were assessed by propidium iodide (PI) and Annexin V-fluorescein isothiocyanate (FITC) staining, according to the manufacturer's instructions (Invitrogen). Epimastigotes exposed to 30% fresh human serum for 2 h at 28°C were used as positive control. Parasites were analysed by flow cytometry acquiring 20,000 events per sample.

[6] = system: Epimastigotes of T. cruzi; experiment: Determination of total thiol groups (DTNB); type: cell-based, Trypanosoma cruzi
Experimental: as §4
(c) Determination of Total Thiol Groups. The thiol groups content was determined employing the chromogenic compound 5,5′-dithiobis-2-nitrobenzoate (DTNB), as already described.

[7] = system: ascorbate peroxidase (APx); experiment: APx activity in C1-treated epimastigotes; type: cell-based, Trypanosoma cruzi; details: control without C1 = 100%
Experimental: as §4
(§5) (b) Determination of Antioxidant Enzymes Activity. The activities of superoxide dismutase (SOD), ascorbate peroxidase (APx), and trypanothione reductase (TryR) were assayed as previously established.
(§6) Protein concentration was determined according to the method described by Lowry et al.. These values were used to express the specific enzymatic activities as activity per mg of protein.

[8] = system: Epimastigotes of T. cruzi; experiment: Cytochrome c release (Western blot, densitometry); type: cell-based, Trypanosoma cruzi; details: 22.5 μM, at 36 h, relative to level detected after 24 h
Experimental: as §4
(§7) Mitochondrial membrane potential was assessed using two well-established assays: 3,3′-dihexyloxacarbocyanine iodide (DiOC6) staining and the cytochrome c release.
To evaluate the cytochrome c release, parasites (3 × 10^8) were resuspended in PBS containing 200 μg/mL digitonin, incubated on ice for 15 min and then centrifuged at 9 000 ×g for 10 min at 4°C. Both, mitochondrial-rich fraction (pellet, resuspended in 50 μL of PBS) and cytosolic fraction (150 μL) were subjected to Western-blot analysis for cytochrome c. Protein extracts (10 μL and 30 μL of mitochondrial and cytosolic fractions, resp.) were resolved by 14% SDS/PAGE, transferred to nitrocellulose membranes, blocked with 3% skimmed milk in PBS, and then incubated with specific antibodies, according to the protocol of Piacenza et al.. Relative intensities of bands were quantified by densitometry using Scion Image software (Scion). Results were expressed in arbitrary units.

Cyclic voltammetry = type: physicochemical
Experimental: Cyclic voltammograms for C1, C2, and C3 dissolved in 1% DMSO were carried out using an EQMAT instrument with an EQSOFT Processor, at a sweep rate of 0.2 V/s under a nitrogen atmosphere at room temperature, employing lithium perchlorate as supporting electrolyte. A three-electrode cell was used equipped with a vitreous carbon as working electrode, a gold wire as auxiliary electrode, and a saturated calomel as reference electrode.

[9] = system: superoxide dismutase (SOD); experiment: SOD activity in C1-treated epimastigotes; type: cell-based, Trypanosoma cruzi; details: control without C1 = 100%
Experimental: as §4, §5, §6

[10] = system: amastigotes (Tulahuen strain expressing the β-galactosidase gene) in J774 cells; experiment: Amastigote assay in infected J774 cells (β-galactosidase, CPRG); type: cell-based; details: Trypanosoma cruzi, 168 h, 7 days
Experimental: as §1
For analysis of amastigotes, J774 cells were infected with bloodstream trypomastigotes expressing the β-galactosidase gene at a parasite: cell ratio of 10 : 1. After 24 h, cell cultures were washed and each compound (2 to 100 μM) was added in fresh RPMI medium without phenol red (to avoid interference with absorbance readings at 570 nm). After 7 days, the assay was developed as described. The galactosidase activity was quantified using CPRG as substrate and measuring absorbance at 570 nm in a Microplate Reader (Bio-Rad Laboratories). Since the assayed compounds are coloured, blanks including uninfected cells with different doses of each compound were performed. The percentage of inhibition was calculated as %I = {1 − [(A it − A nit)/(A ic − A nic)]} × 100, where A represents the mean A 570 value recorded for A it, treated infected cells; A nit, treated noninfected cells; A ic, untreated infected cells; and A nic, untreated noninfected cells.
as §2

T. cruzi = experiment: Effect of DTT, ascorbic acid and GSH on anti-T. cruzi activity of C1; type: cell-based, Trypanosoma cruzi
Experimental: as §3

[11] = system: Epimastigotes of T. cruzi; experiment: Mitochondrial membrane potential (DiOC6 staining); type: cell-based, Trypanosoma cruzi; details: 22.5 μM, 31% for the control (0 h)
Experimental: as §4, §7
For the DiOC6 assay, epimastigotes (10^6) were permeabilized for 20 min at room temperature with 0.01% saponin, washed, and incubated with 30 nM DiOC6 for 30 min at 37°C. The positive control was done with 250 nM trifluoromethoxy carbonyl cyanide phenyl hydrazone (FCCP) as depolarizing agent. Stained cells were analyzed by flow cytometry with an excitation wavelength of 484 nm and an emission wavelength of 511 nm.

[12] = system: trypanothione reductase (TryR); experiment: TryR activity in C1-treated epimastigotes; type: cell-based, Trypanosoma cruzi; details: control without C1 = 100%
Experimental: as §4, §5, §6

[13] = 1% DMSO, sweep rate 0.2 V/s, saturated calomel reference electrode

O=C(Cn1ccnc1[N+](=O)[O-])NCc1ccccc1 [Bnz, Benznidazole, reference compound]
CC50 at 48 h [1]: 82.8 ± 2.75 µM | IC50 [2]: 30.3 ± 2.85 µM | IC50 [3]: 5.49 ± 0.89 µM

O=c1c2ccccc2c(C(=S)Nc2ccccc2)c2n1CCN2 [Compound C1, N-phenyl-5-oxo-1,2,3,5-tetrahydroimidazo[1,2-b]isoquinolin-10-carbothioamide]
ratio Gmt/Gmc (H2DCFDA fluorescence) [4]: around 1 | early apoptotic cells ([5]; 24 h): 8.7% | late apoptotic cells ([5]; 24 h): 4.9% | early apoptotic cells ([5]; 36 h): 51.0% | late apoptotic cells ([5]; 36 h): 7.7% | viability at 22.5 µM ([5]; 24 h): 84.8% | viability at 22.5 µM ([5]; 36 h): 40.4% | IC50 [2]: 34.9 ± 1.2 µM | decrease of low molecular mass thiols ([6]; 22.5 μM, 24 h of incubation): not more than 20% | level of low molecular mass thiols ([6]; all C1 concentrations tested, 5 and 12 h, data not shown): remain constant | APx activity (%) ([7]; 5 h, 7.5 µM): 111.26 ± 7.60% | APx activity (%) ([7]; 5 h, 15.0 µM): 98.31 ± 2.10% | APx activity (%) ([7]; 5 h, 22.5 µM): 105.20 ± 6.20% | APx activity (%) ([7]; 12 h, 7.5 µM): 98.30 ± 2.30% | APx activity (%) ([7]; 12 h, 15.0 µM): 95.91 ± 4.10% | APx activity (%) ([7]; 12 h, 22.5 µM): 93.48 ± 6.20% | APx activity (%) ([7]; 24 h, 7.5 µM): 108.35 ± 9.20% | APx activity (%) ([7]; 24 h, 15.0 µM): 105.30 ± 6.56% | APx activity (%) ([7]; 24 h, 22.5 µM): 96.25 ± 5.80% | increase of cytochrome c in the parasite cytosol [8]: 2.5–3 times | anodic peak (irreversible oxidation) (Cyclic voltammetry; [13]): 0.78 V | cathodic peak (irreversible reduction) (Cyclic voltammetry; [13]): −1.04 V | SOD activity (%) ([9]; 5 h, 7.5 µM): 95.85 ± 2.50% | SOD activity (%) ([9]; 5 h, 15.0 µM): 99.31 ± 4.30% | SOD activity (%) ([9]; 5 h, 22.5 µM): 90.09 ± 2.30% | SOD activity (%) ([9]; 12 h, 7.5 µM): 99.75 ± 2.90% | SOD activity (%) ([9]; 12 h, 15.0 µM): 103.92 ± 4.30% | SOD activity (%) ([9]; 12 h, 22.5 µM): 88.48 ± 3.20 % | SOD activity (%) ([9]; 24 h, 7.5 µM): 98.74 ± 7.30% | SOD activity (%) ([9]; 24 h, 15.0 µM): 89.78 ± 3.50 % | SOD activity (%) ([9]; 24 h, 22.5 µM): 78.27 ± 4.20 % | IC50 [3]: 1.49 ± 0.28 µM | IC50 [10]: 1740 ± 300 nM | effect of DTT and ascorbic acid on the inhibitory action of the drug (T. cruzi; C1 1 up to 2.5 μM, at the antioxidant concentrations tested): considerably enhanced | effect of GSH on the inhibitory effect of C1 (T. cruzi; GSH 5 μM): completely abrogated | Depolarized cells ([11]; 24 h): 77% | Depolarized cells ([11]; 36 h): 84% | TryR activity (%) ([12]; 5 h, 7.5 µM): 152.23 ± 6.38 % | TryR activity (%) ([12]; 5 h, 15.0 µM): 177.17 ± 15.56 % | TryR activity (%) ([12]; 5 h, 22.5 µM): 143.89 ± 4.80 % | TryR activity (%) ([12]; 12 h, 7.5 µM): 188.60 ± 12.30 % | TryR activity (%) ([12]; 12 h, 15.0 µM): 251.62 ± 15.56 % | TryR activity (%) ([12]; 12 h, 22.5 µM): 190.55 ± 14.29 % | TryR activity (%) ([12]; 24 h, 7.5 µM): 165.23 ± 9.80 % | TryR activity (%) ([12]; 24 h, 15.0 µM): 198.27 ± 9.30 % | TryR activity (%) ([12]; 24 h, 22.5 µM): 163.56 ± 7.60 %

O=c1c2ccccc2c(C(=S)Nc2ccc(Cl)cc2)c2n1CCN2 [Compound C2, N-(4-chlorophenyl)-5-oxo-1,2,3,5-tetrahydroimidazo[1,2-b]isoquinolin-10-carbothioamide]
IC50 [2]: 306 ± 15 µM | IC50 [3]: 5.57 ± 0.53 µM | IC50 [10]: 3630 ± 510 nM

Cc1ccc(NC(=S)c2c3n(c(=O)c4ccccc24)CCN3)cc1 [Compound C3]
IC50 [2]: 246 ± 18 µM | IC50 [3]: 1.5 ± 0.3 µM | IC50 [10]: 1500 ± 320 nM

O=C(Nc1ccccc1)c1c2n(c(=O)c3ccccc13)CCN2 [D, 5-oxo-N-phenyl-1,2,3,5-tetrahydroimidazo[1,2-b]isoquinolin-10-carboxamide]
IC50 [2]: > 300 µM | IC50 [3]: > 25 µM | IC50 [10]: 11400 ± 1210 nM

O=c1c2ccccc2cc2n1CCN2 [heterocycle precursor, 2,3-dihydroimidazo[1,2-b]isoquinolin-5(1-H)-one]
cathodic and anodic peaks (Cyclic voltammetry; subjected to the same potentials as C1): Neither the cathodic nor the anodic peaks were measurable | IC50 [3]: > 25 µM

From paper PMC3723252, “Trypanocidal Activity of Thioamide-Substituted Imidazoquinolinone: Electrochemical Properties and Biological Effects” (Evidence-based Complementary and Alternative Medicine : eCAM, 2013)
